Reference: ChEMBL document CHEMBL1221200, “Diarylquinolines target subunit c of mycobacterial ATP synthase” (Nat Chem Biol, 2007)
In brackets after ≈: the same amount, converted by molar mass. Activity calls are given as the source filed them. The calls are words filed in the database; no cut-off is given here.

Assays:
[1] = test system: Mycobacterium tuberculosis; experiment: Antimicrobial activity against wild-type Mycobacterium tuberculosis isolate LV13 expressing ATP synthase AtpE I66M mutant protein assessed as growth inhibition in early log-phase by 7H10 agar dilution method; format: functional, organism-based
[2] = test system: ATP synthase (Mycobacterium tuberculosis), P9WPU9+P9WPU5+P9WPU7+P9WPV5+P9WPS1+P9WPV1+P9WPV7+P9WPV3 [I66M]; experiment: Inhibition of Mycobacterium tuberculosis isolate LV13 ATP synthase subunit c I66M mutant-mediated ATP synthesis after 24 hrs by luminometry
[3] = test system: ATP synthase (Mycobacterium tuberculosis), P9WPU9+P9WPU5+P9WPU7+P9WPV5+P9WPS1+P9WPV1+P9WPV7+P9WPV3 [A63P]; experiment: Inhibition of Mycobacterium tuberculosis isolate BK12 ATP synthase subunit c A63P mutant-mediated ATP synthesis after 24 hrs by luminometry
[4] = test system: Mycobacterium tuberculosis; experiment: Antimicrobial activity against wild-type Mycobacterium tuberculosis isolate BK12 expressing ATP synthase AtpE A63P mutant protein assessed as growth inhibition in early log-phase by 7H10 agar dilution method; format: functional, organism-based
[5] = test system: Mycobacterium tuberculosis; experiment: Ratio of MIC for Mycobacterium tuberculosis H37Rv isolate BK12 expressing ATP synthase atpE A63P mutant protein to MIC for Mycobacterium tuberculosis H37Rv; format: functional
[6] = test system: Mycobacterium tuberculosis; experiment: Antimicrobial activity against Mycobacterium tuberculosis H37Rv isolate LV13 expressing ATP synthase atpE I66M mutant protein by 7H10 broth dilution method; format: functional
[7] = test system: Mycobacterium tuberculosis; experiment: Antimicrobial activity against Mycobacterium tuberculosis H37Rv isolate BK12 expressing ATP synthase atpE A63P mutant protein by 7H9 broth dilution method; format: functional
[8] = test system: Mycobacterium tuberculosis; experiment: Antimicrobial activity against Mycobacterium tuberculosis H37Rv isolate LV13 expressing ATP synthase atpE I66M mutant protein by 7H9 broth dilution method; format: functional
[9] = test system: Mycobacterium tuberculosis; experiment: Antimicrobial activity against Mycobacterium tuberculosis H37Rv isolate BK12 expressing ATP synthase atpE A63P mutant protein by 7H10 broth dilution method; format: functional
[10] = test system: Mycobacterium tuberculosis; experiment: Ratio of MIC for Mycobacterium tuberculosis H37Rv isolate LV13 expressing ATP synthase atpE I66M mutant protein to MIC for Mycobacterium tuberculosis H37Rv; format: functional

Structure (SMILES) | Activity [1] | inhibition [2] | inhibition [3] | Activity [4] | Ratio [5] | MIC [6] | MIC [7] | MIC [8] | MIC [9] | Ratio [10]
COc1nc2ccc(Br)cc2cc1[C@@H](c1ccccc1)[C@@](O)(CCN(C)C)c1cccc2ccccc12 | Active | inactive | inactive | Active | – | – | – | – | – | –
COc1nc2ccc(Br)cc2cc1[C@@H](c1ccccc1)[C@@](O)(CCN(C)C)c1cccc2ccccc12 [BEDAQUILINE] | – | – | – | – | >200 | 13 mg/L (≈ 23.4 µM) | 11 mg/L (≈ 19.8 µM) | 11 mg/L (≈ 19.8 µM) | 13 mg/L (≈ 23.4 µM) | >200
